Measured values: publication PMC9389255 (Heliyon, 2022)

What was measured:
[1] = system: α-Glucosidase from Saccharomyces cerevisiae; assay: In vitro inhibition assay for α-glucosidase activity; format: biochemical
[2] = Precipitation of DMSO-dissolved compounds upon mixing in phosphate buffer; format: physicochemical
[3] = system: α-Glucosidase from Saccharomyces cerevisiae; assay: Inhibitory kinetic analysis; format: biochemical; conditions: Lineweaver-Burk plots
[4] = printed in the column IC50 against α-amylase
[5] = printed in the column IC50 against α-glucosidase

Compound	Precipitated at (in vial) [2, 4]	Precipitated at (in vial) [2, 5]	inhibition pattern against α-glucosidase [3]	further results
O=c1cc(-c2ccc(O)cc2)oc2cc(O)cc(O)c12 [Apigenin]	Precipitated at 1000 μM (in vial)	Precipitated at 1000 μM (in vial)		inhibitory activity on α-glucosidase ([1]; at ≤1000 μM): no inhibitory activity
O=c1c(O)c(-c2ccc(O)cc2)oc2cc(O)cc(O)c12 [Kaempferol]	Precipitated at 80 μM (in vial)	Precipitated at 80 μM (in vial)		inhibitory activity on α-glucosidase ([1]; at ≤80 μM): no inhibitory activity
O=c1cc(-c2ccccc2)oc2cc(O)cc(O)c12 [Chrysin]	Precipitated at 400 μM (in vial)	Precipitated at 400 μM (in vial)		inhibitory activity on α-glucosidase ([1]; at ≤400 μM): no inhibitory activity
C[C@H]1O[C@H](O[C@H]2[C@H](O)[C@@H](O)[C@@H](O[C@H]3[C@H](O)[C@@H](O)C(O)O[C@@H]3CO)O[C@@H]2CO)[C@H](O)[C@@H](O)[C@@H]1N[C@H]1C=C(CO)[C@@H](O)[C@H](O)[C@H]1O (stereo partly shown) [Acarbose, reference compound]			competitive inhibition pattern	

The next lines start with results.

Precipitated at (in vial) [2, 4]	Precipitated at (in vial) [2, 5]	inhibition pattern against α-glucosidase [3]	Compound	further results
		mixed inhibition patterns	O=c1c(O)c(-c2ccc(O)c(O)c2)oc2cc(O)cc(O)c12 [Quercetin]	
		mixed inhibition patterns	O=c1cc(-c2ccc(O)c(O)c2)oc2cc(O)cc(O)c12 [Luteolin]	
		mixed inhibition patterns	O=c1c(O)c(-c2cc(O)c(O)c(O)c2)oc2cc(O)cc(O)c12 [Myricetin]	
